Data as given in patent US8530504B2, “Pyrazolothiazole compound” (Eisai R&D Management Co., Ltd., priority 2009, dated 2013).
pIC50: −log10 of the molar value.

Tests used:
[1] = in vivo; cited from earlier work
mice = assay: Light/dark box test in mice (anxiolytic effect); type: in vivo; conditions: for Effective Dose: dose significantly prolonging time spent in the light box vs vehicle, oral administration one hour prior to test, male Balb/c mice; for anxiolytic effect in the light/dark box test in mice: statistically significant at 30 mg/kg (oral administration)
Protocol: <Evaluation of Anxiolytic Effect in Light/Dark Box Test in Mice>
The light/dark box test in mice was carried out according to a modified method of Belzung C., Misslin R., and Vogel E. et al. (Reference; Behavioural effects of the benzodiazepine receptor partial agonist RO16-6028 in mice, Psychopharmacology, 97, 388-391, 1989). The test apparatus used in this test was a light/dark box including a covered black acrylic box (dark box; 15×10×20 cm), a white acrylic box with top opened (light box; 15×20×20 cm) and a black acrylic tunnel (10×7×4.5 cm) that connects the dark box and the light box and enables a mouse to freely move back and forth between the dark box and light box. In this test apparatus, however, a transparent acrylic plate was used for the front side (20×20 cm) and back side (20×20 cm) of the light box to allow observation of the behavior. After setting illumination so that the light intensity of the floor surface of the light box became 150 Lux, 5-week-old male Balb/c mice (purchased from Nihon Charles River) were introduced into the dark box and the test was started. In the test, the tested compound was suspended in 5% dimethyl sulfoxide, 5% Cremopor EL and 90% physiological saline and orally administered to the test animals one hour prior to the start of the test.
The time spent in the light box was measured as an index of the anxiolytic effect, with “spend in the light box” defined as the state in which all limbs of the mice were on the floor of the light box. […] The statistical significance between the vehicle-treated group and the test compound-treated groups was analyzed by one-way layout analysis of variance followed by Dunnett multiple comparison when multiple doses were set for the same test, and by the Mann-Whitney U test when only one dose was set.

human CRFR1 = human CRFR1 (Homo sapiens (Human), UniProt P34998); assay: CRFR1 Binding Test; conditions: competition with 100 pM 125I-CRF, SPA method, membrane fraction of human CRFR1-expressing HEK293 cells; read-out: CRF1 receptor binding capacity IC50;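 also: nonspecific binding was determined with a 4,000-fold excess of unlabelled sauvagine and subtracted from every reading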
[2] = convulsion and epilepsy induced by CRF administration; cited from earlier work
Tg2576 transgenic mice = conditions: cited from earlier work
[3] = in vivo; cited from earlier work; remark: listed apart in the source
[4] = in vivo; cited from earlier work; remark: listed apart in the source
rats = conditions: cited from earlier work
high-anxiety rats = conditions: particularly in high-anxiety rats; cited from earlier work
[5] = Journal of Psychiatric Research, 34:171-181 (2000); cited from earlier work

human CRFR1, sequence (P34998 24-415): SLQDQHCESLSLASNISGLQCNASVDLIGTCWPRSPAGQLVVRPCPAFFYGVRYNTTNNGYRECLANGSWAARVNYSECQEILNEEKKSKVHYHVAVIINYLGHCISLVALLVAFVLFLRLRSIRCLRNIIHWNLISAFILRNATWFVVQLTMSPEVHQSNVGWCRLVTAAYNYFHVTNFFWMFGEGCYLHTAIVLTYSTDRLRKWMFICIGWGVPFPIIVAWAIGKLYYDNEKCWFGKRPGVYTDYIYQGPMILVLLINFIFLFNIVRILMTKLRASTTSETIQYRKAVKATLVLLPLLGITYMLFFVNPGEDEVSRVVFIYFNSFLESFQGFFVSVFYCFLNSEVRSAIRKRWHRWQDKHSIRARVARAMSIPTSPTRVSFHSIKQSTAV

SMILES: CCN(c1nc(C)cc(N2CC=C(c3cccc(F)c3)CC2)n1)c1ccc(C(C)C)cc1SC [CRA1000]
- stress-related reduction in food intake [1]: inhibit stress-related reduction in food intake

SMILES: COCc1cc(OC)c(-c2csc3c(N(CC4CCOCC4)CC4CC4)c(C)nn23)c(OC)c1 [Example 4, N-(Cyclopropylmethyl)-3-[2,6-dimethoxy-4-(methoxymethyl)phenyl]-6-methyl-N-(tetrahydro-2H-pyran-4-ylmethyl)pyrazolo[5,1-b][1,3]thiazole-7-amine]
- Effective Dose (mice): 30 mg/kg
- anxiolytic effect in the light/dark box test in mice (mice): excellent anxiolytic effects

SMILES: CCCN(c1c(OC)nn2c(-c3c(OC)cc(COC)cc3OC)csc12)C1CCOC1 (stereo not shown) [Example 14, 3-[2,6-Dimethoxy-4-methoxymethylphenyl]-6-methoxy-N-propyl-N-(tetrahydrofuran-3-yl)pyrazolo[5,1-b][1,3]thiazole-7-amine]
- Effective Dose (mice): 30 mg/kg
- anxiolytic effect in the light/dark box test in mice (mice): excellent anxiolytic effects
- pIC50 (human CRFR1): 7.29

SMILES: CCCN(c1c(OC)nn2c(-c3c(OC)cc(COCC)cc3OC)csc12)C1CCOC1 (stereo not shown) [Example 46, 3-[4-(Ethoxymethyl)-2,6-dimethoxyphenyl]-6-methoxy-N-propyl-N-(tetrahydrofuran-3-yl)pyrazolo[5,1-b][1,3]thiazole-7-amine]
- Effective Dose (mice): 30 mg/kg
- anxiolytic effect in the light/dark box test in mice (mice): excellent anxiolytic effects
- pIC50 (human CRFR1): 7.59

SMILES: COCc1cc(OC)c(-c2csc3c(N(CC4CC4)CC4C5COCC54)c(OC)nn23)c(OC)c1 (single isomer, unassigned; diastereomer 1) [Example 94, N-(Cyclopropylmethyl)-3-[2,6-dimethoxy-4-(methoxymethyl)phenyl]-6-methoxy-N-[3-oxabicyclo[3.1.0]hex-6-ylmethyl]-pyrazolo[5,1-b][1,3]thiazole-7-amine (diastereomer 1)]
- Effective Dose (mice): 30 mg/kg
- anxiolytic effect in the light/dark box test in mice (mice): excellent anxiolytic effects
- pIC50 (human CRFR1): 7.35

SMILES: CCCN(CC1CC1)c1nc(C)nc(Nc2c(Cl)cc(Cl)cc2Cl)c1Cl [NBI27914]
- limbic system seizure [2]: inhibits limbic system seizure
- increased levels of Aβ and Aβ plaque deposition induced by stress (Tg2576 transgenic mice): inhibits increased levels of Aβ and Aβ plaque deposition induced by stress

SMILES: COCc1cc(OC)c(-c2csc3c(N(CC4CC4)c4cccnc4)c(OC)nn23)c(OC)c1 [Example 89, N-(Cyclopropylmethyl)-3-[2,6-dimethoxy-4-(methoxymethyl)phenyl]-6-methoxy-N-pyridin-3-ylpyrazolo[5,1-b][1,3]thiazole-7-amine]
- pIC50 (human CRFR1): 7.28

SMILES: CCOCc1cc(OC)c(-c2csc3c(N(CCCF)C4CCOCC4)c(OC)nn23)c(OC)c1 [Example 35, [3-(4-Ethoxymethyl-2,6-dimethoxy-phenyl)-6-methoxy-pyrazolo[5,1-b][1,3]thiazol-7-yl]-(3-fluoro-propyl)-(tetrahydro-pyran-4-yl)-amine]
- pIC50 (human CRFR1): 7.05

SMILES: CCCCN(c1c(OC)nn2c(-c3c(OC)cc(COC(C)C)cc3OC)csc12)C1CCOCC1 [Example 75, Butyl-[3-(4-isopropoxymethyl-2,6-dimethoxy-phenyl)-6-methoxy-pyrazolo[5,1-b][1,3]thiazol-7-yl]-(tetrahydro-pyran-4-yl)amine]
- pIC50 (human CRFR1): 7.13

SMILES: CCOCc1cc(OC)c(-c2csc3c(N(CCOC)CC4CC4)c(OC)nn23)c(OC)c1 [Example 40, N-(Cyclopropylmethyl)-3-[4-(ethoxymethyl)-2,6-dimethoxyphenyl]-6-methoxy-N-(2-methoxyethyl)pyrazolo[5,1-b][1,3]thiazole-7-amine]
- pIC50 (human CRFR1): 7.49

SMILES: CCCCN(CC)c1nc(C)nc2c1c(C)c(C)n2-c1c(C)cc(C)cc1C [antalarmin]
- hypertension induced by intraventricular administration of CRF [3]: inhibits hypertension induced by intraventricular administration of CRF
- stress-induced hippocampal tau phosphorylation [4]: inhibits stress-induced hippocampal tau phosphorylation

SMILES: CCCN(CCC)c1c(OC)nn2c(-c3c(OC)cc(COC)cc3OC)csc12 [Example 24, 3-[2,6-Dimethoxy-4-(methoxymethyl)phenyl]-6-methoxy-N,N-dipropylpyrazolo[5,1-b][1,3]thiazole-7-amine]
- pIC50 (human CRFR1): 7.59

SMILES: CCCCN(c1c(OCC)nn2c(-c3c(OC)cc(COC)cc3OC)csc12)C1CCOCC1 [Example 82, N-Butyl-3-[2,6-dimethoxy-4-(methoxymethyl)phenyl]-6-ethoxy-N-(tetrahydro-2H-pyran-4-yl)-pyrazolo[5,1-b][1,3]thiazole-7-amine]
- pIC50 (human CRFR1): 7.20

SMILES: CCCN(CCC)c1cc(C)nc2c(-c3cnc(N(C)C)cc3C)c(C)nn12 [Example R121919]
- anti-anxiety action (rats): exhibits an anti-anxiety action
- stress-related sleep disorder (high-anxiety rats): inhibits stress-related sleep disorder
- ameliorating depression, depressive symptoms, anxiety [5]: effective for ameliorating depression, depressive symptoms, anxiety

SMILES: COCc1cc(OC)c(-c2csc3c(N(CC4CCC4)C4CCOC4)c(OC)nn23)c(OC)c1 (stereo not shown) [Example 29, N-(Cyclobutylmethyl)-3-[2,6-dimethoxy-4-(methoxymethyl)phenyl]-6-methoxy-N-(tetrahydrofuran-3-yl)pyrazolo[5,1-b][1,3]thiazole-7-amine]
- pIC50 (human CRFR1): 7.35

SMILES: COCCN(CC(C)C)c1c(OC)nn2c(-c3c(OC)cc(COC)cc3OC)csc12 [Example 55, 3-[2,6-Dimethoxy-4-(methoxymethyl)phenyl]-N-isobutyl-6-methoxy-N-(2-methoxyethyl)pyrazolo[5,1-b][1,3]thiazole-7-amine]
- pIC50 (human CRFR1): 7.72

SMILES: COCc1cc(OC)c(-c2csc3c(N(CC(C)C)CC4(OC)CC4)c(OC)nn23)c(OC)c1 [Example 76, 3-[2,6-Dimethoxy-4-(methoxymethyl)phenyl]-N-isobutyl-6-methoxy-N-[(1-methoxycyclopropyl)methyl]pyrazolo[5,1-b][1,3]thiazole-7-amine]
- pIC50 (human CRFR1): 7.43

SMILES: COCCN(c1c(OC)nn2c(-c3c(OC)cc(COC)cc3OC)csc12)C1CCC1 [Example 56, N-Cyclobutyl-3-[2,6-dimethoxy-4-(methoxymethyl)phenyl]-6-methoxy-N-(2-methoxyethyl)pyrazolo[5,1-b][1,3]thiazole-7-amine]
- pIC50 (human CRFR1): 7.51

SMILES: CCCN(CCC)c1c(C)nn2c(-c3c(OC)cc(COC)cc3OC)c([S+](C)[O-])sc12 (stereo not shown) [Example 3, 3-[2,6-Dimethoxy-4-(methoxymethyl)phenyl]-6-methyl-2-(methylsulfinyl)-N,N-dipropylpyrazolo[5,1-b][1,3]thiazole-7-amine]
- pIC50 (human CRFR1): 6.53

SMILES: CCCN(c1ccccn1)c1c(OC)nn2c(-c3c(OC)cc(COC)cc3OC)csc12 [Example 86, 3-[2,6-Dimethoxy-4-(methoxymethyl)phenyl]-6-methoxy-N-propyl-N-pyridin-2-ylpyrazolo[5,1-b][1,3]thiazole-7-amine]
- pIC50 (human CRFR1): 7.48

SMILES: COCc1cc(OC)c(-c2csc3c(N(CC4CC4)CC4COCOC4)c(OC)nn23)c(OC)c1 [Example 11, Cyclopropylmethyl-3[3-(2,6-dimethoxy-4-methoxymethyl-phenyl)-6-methoxy-pyrazolo[5,1-b][1,3]thiazol-7-yl]-[1,3]dioxan-5-ylmethyl-amine]
- Effective Dose (mice): 30 mg/kg
- anxiolytic effect in the light/dark box test in mice (mice): excellent anxiolytic effects
- pIC50 (human CRFR1): 7.04

SMILES: COCc1cc(OC)c(-c2csc3c(N(CC(C)C)C4CCOC4)c(OC)nn23)c(OC)c1 (stereo not shown) [Example 43, [3-(2,6-Dimethoxy-4-methoxymethylphenyl)-6-methoxy-pyrazolo[5,1-b][1,3]thiazol-7-yl]-isobutyl-(tetrahydrofuran-3-yl)-amine]
- pIC50 (human CRFR1): 7.35

SMILES: CCOCc1cc(OC)c(-c2csc3c(N(CC4CCC4)C4CCOC4)c(OC)nn23)c(OC)c1 (stereo not shown) [Example 47, N-(Cyclobutylmethyl)-3-[4-(ethoxymethyl)-2,6-dimethoxyphenyl]-6-methoxy-N-(tetrahydrofuran-3-yl)pyrazolo[5,1-b][1,3]thiazole-7-amine]
- pIC50 (human CRFR1): 7.49

SMILES: COc1cc(C(C)OC)cc(OC)c1-c1csc2c(N(CC3CC3)CC3CCOC3)c(OC)nn12 (stereo not shown) [Example 19, N-(Cyclopropylmethyl)-3-[2,6-dimethoxy-4-(1-methoxyethyl)phenyl]-6-methoxy-N-(tetrahydrofuran-3-ylmethyl)pyrazolo[5,1-b][1,3]thiazole-7-amine]
- pIC50 (human CRFR1): 7.28

SMILES: CCOCc1cc(OC)c(-c2csc3c(N(CCCOC)CC4CC4)c(OC)nn23)c(OC)c1 [Example 42, N-(Cyclopropylmethyl)-3-[4-(ethoxymethyl)-2,6-dimethoxyphenyl]-6-methoxy-N-(3-methoxypropyl)pyrazolo[5,1-b][1,3]thiazole-7-amine]
- Effective Dose (mice): 30 mg/kg
- anxiolytic effect in the light/dark box test in mice (mice): excellent anxiolytic effects
- pIC50 (human CRFR1): 7.46
